This is an account of results in article PMC9619376 (iScience, 2022).

The target in assay [1] is EBOV VP35_75-185 (native, non GFP-tagged) (Ebola virus - Mayinga, Zaire, 1976, UniProt Q05127). In kind it is binding.
Assay [2] has as its target GFP 10M2/11M4 EBOV VP35_75-185 (EBOV VP35 oligomerization domain) (Ebola virus - Mayinga, Zaire, 1976, UniProt Q05127). Nature of the assay: biochemical. In kind it is binding.

Structures are written as SMILES.

Sequence of GFP 10M2/11M4 EBOV VP35_75-185 (EBOV VP35 oligomerization domain) (Q05127 75-185 limits assumed): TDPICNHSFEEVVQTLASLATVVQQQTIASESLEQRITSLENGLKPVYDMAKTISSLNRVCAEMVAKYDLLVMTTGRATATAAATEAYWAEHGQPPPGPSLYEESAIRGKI
Sequence of EBOV VP35_75-185 (native, non GFP-tagged) (Q05127 75-185 limits assumed): as above

A word on the IC50: it is the concentration that inhibits the measured activity by half. Low values mean inhibition by little substance, high ones a need for much substance. Take `O=c1c(O)c(-c2cc(O)c(O)c(O)c2)oc2cc(O)cc(O)c12` [Myricetin]: the “Tm at 100 μM compound (70.8 at 0 μM)” value in assay [1] is 73.5 °C. For the same compound, the IC50 in assay [2] came to 64.4 µM.

Turning to `Brc1c(Br)c(Br)c2[nH]nnc2c1Br` [TBBT, 4,5,6,7-Tetrabromobenzotriazole], the “Tm at 100 μM compound (70.8 at 0 μM)” value in assay [1] is 66.9 °C. In addition, in assay [2], the midpoint of inhibition, the IC50, lay at 32.5 µM.
